This test has as its target T1, Organic anion transporter 1 (hOAT1) (Homo sapiens, UniProt Q4U2R8).
T1 construct: gene SLC22A6
T1 sequence (Q4U2R8 1-563): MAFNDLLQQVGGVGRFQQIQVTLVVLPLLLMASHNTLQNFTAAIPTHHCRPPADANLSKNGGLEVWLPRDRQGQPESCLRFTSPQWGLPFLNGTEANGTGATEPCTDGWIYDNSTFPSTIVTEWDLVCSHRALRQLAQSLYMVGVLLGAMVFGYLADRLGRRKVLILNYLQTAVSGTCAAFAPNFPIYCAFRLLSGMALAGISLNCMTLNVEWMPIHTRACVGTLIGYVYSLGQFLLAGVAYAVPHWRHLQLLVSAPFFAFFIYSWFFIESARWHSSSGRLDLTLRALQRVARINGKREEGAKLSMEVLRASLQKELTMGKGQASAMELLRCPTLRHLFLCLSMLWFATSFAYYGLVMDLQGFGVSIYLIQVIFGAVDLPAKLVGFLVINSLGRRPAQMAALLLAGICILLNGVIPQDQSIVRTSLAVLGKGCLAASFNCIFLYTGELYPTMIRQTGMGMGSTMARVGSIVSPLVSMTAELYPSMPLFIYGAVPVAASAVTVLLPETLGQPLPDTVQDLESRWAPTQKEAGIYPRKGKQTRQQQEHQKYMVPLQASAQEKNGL
The test is described as follows: competitive inhibition of 6-carboxyfluorescein uptake in hOAT1-overexpressing HEK293 cells. It counts as cell-based.

The term IC50 denotes the concentration that inhibits the measured activity by half. A lower IC50 goes with greater potency. `CCCCCCCCCCCCCCC(=O)O` [Pentadecanoic acid] had an IC50 of 103 µM.

Source of the values: PMC8102404, “A key role for the transporter OAT1 in systemic lipid metabolism” (The Journal of Biological Chemistry, 2021).
